Laboratory results taken from PubChem BioAssay (NCI).
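How tested: cells in 96-well plates exposed to compound for 48 hours at five concentrations. GI50 = concentration required for 50% inhibition of growth. TGI is the concentration that stops growth completely.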

Legend:
Experiment in all cases: NCI tumour cell line growth inhibition, 48 h
SF-295 CNS = tested on: SF-295 CNS
OVCAR-4 ovarian = tested on: OVCAR-4 ovarian
KM12 colon = tested on: KM12 colon
HCT-15 colon = tested on: HCT-15 colon
NCI/ADR-RES ovarian = tested on: NCI/ADR-RES ovarian
PC-3 prostate = tested on: PC-3 prostate
RPMI-8226 leukemia = tested on: RPMI-8226 leukemia
DU-145 prostate = tested on: DU-145 prostate
HS 578T breast = tested on: HS 578T breast
SR leukemia = tested on: SR leukemia
HT29 colon = tested on: HT29 colon
HOP-92 NSCLC = tested on: HOP-92 NSCLC
U251 CNS = tested on: U251 CNS
SN12C renal = tested on: SN12C renal
786-0 renal = tested on: 786-0 renal
MCF7 breast = tested on: MCF7 breast
A549 NSCLC = tested on: A549 NSCLC
UO-31 renal = tested on: UO-31 renal
A498 renal = tested on: A498 renal
LOX IMVI melanoma = tested on: LOX IMVI melanoma
SNB-19 CNS = tested on: SNB-19 CNS
BT-549 breast = tested on: BT-549 breast
HOP-62 NSCLC = tested on: HOP-62 NSCLC
HCT-116 colon = tested on: HCT-116 colon
NCI-H23 lung = tested on: NCI-H23 lung
IGROV1 ovarian = tested on: IGROV1 ovarian
SF-539 CNS = tested on: SF-539 CNS
ACHN renal = tested on: ACHN renal
OVCAR-5 ovarian = tested on: OVCAR-5 ovarian
TK-10 renal = tested on: TK-10 renal
T-47D breast = tested on: T-47D breast
SF-268 CNS = tested on: SF-268 CNS
SK-OV-3 ovarian = tested on: SK-OV-3 ovarian
CCRF-CEM leukemia = tested on: CCRF-CEM leukemia
SK-MEL-5 melanoma = tested on: SK-MEL-5 melanoma
HL-60(TB) leukemia = tested on: HL-60(TB) leukemia
MDA-MB-231 breast = tested on: MDA-MB-231 breast
RXF 393 renal = tested on: RXF 393 renal
HCC-2998 colon = tested on: HCC-2998 colon
M14 melanoma = tested on: M14 melanoma
UACC-257 melanoma = tested on: UACC-257 melanoma
NCI-H522 lung = tested on: NCI-H522 lung
EKVX NSCLC = tested on: EKVX NSCLC
CAKI-1 renal = tested on: CAKI-1 renal
K-562 leukemia = tested on: K-562 leukemia
SNB-75 CNS = tested on: SNB-75 CNS
OVCAR-8 ovarian = tested on: OVCAR-8 ovarian
COLO 205 colon = tested on: COLO 205 colon
NCI-H226 lung = tested on: NCI-H226 lung
MOLT-4 leukemia = tested on: MOLT-4 leukemia
SK-MEL-28 melanoma = tested on: SK-MEL-28 melanoma
SK-MEL-2 melanoma = tested on: SK-MEL-2 melanoma
NCI-H460 lung = tested on: NCI-H460 lung
UACC-62 melanoma = tested on: UACC-62 melanoma
SW-620 colon = tested on: SW-620 colon
MDA-MB-435 = tested on: MDA-MB-435
MALME-3M melanoma = tested on: MALME-3M melanoma

## CCC(CC)N1C(=O)/C(=c2\sc3n(c2=O)C2C(NN=3)N(CC)C(=O)N2CC)c2ccccc21 (centres undefined)
SF-295 CNS
  GI50: 324 nM
  TGI: 12300 nM
OVCAR-4 ovarian
  GI50: 10400 nM
  TGI: > 100000 nM
KM12 colon
  GI50: 431 nM
  TGI: 25100 nM
HCT-15 colon
  GI50: 353 nM
  TGI: 13100 nM
NCI/ADR-RES ovarian
  GI50: 385 nM
  TGI: 15600 nM
PC-3 prostate
  GI50: 473 nM
  TGI: > 100000 nM
RPMI-8226 leukemia
  GI50: 442 nM
  TGI: 8450 nM
DU-145 prostate
  GI50: 453 nM
  TGI: 17200 nM
HS 578T breast
  GI50: 381 nM
  TGI: 22500 nM
SR leukemia
  GI50: 361 nM
  TGI: > 35100 nM
HT29 colon
  GI50: 326 nM
  TGI: 3040 nM
HOP-92 NSCLC
  GI50: 2410 nM
  TGI: 45400 nM
U251 CNS
  GI50: 405 nM
  TGI: 15500 nM
SN12C renal
  GI50: 1200 nM
  TGI: 17800 nM
786-0 renal
  GI50: 665 nM
  TGI: 14800 nM
MCF7 breast
  GI50: 364 nM
  TGI: 14000 nM
A549 NSCLC
  GI50: 503 nM
  TGI: 21700 nM
UO-31 renal
  GI50: 688 nM
  TGI: 33800 nM
A498 renal
  GI50: 287 nM
  TGI: 925 nM
LOX IMVI melanoma
  GI50: 345 nM
  TGI: 11100 nM
SNB-19 CNS
  GI50: 465 nM
  TGI: 24600 nM
BT-549 breast
  GI50: 465 nM
  TGI: 3290 nM
HOP-62 NSCLC
  GI50: 554 nM
  TGI: 22500 nM
HCT-116 colon
  GI50: 345 nM
  TGI: 5180 nM
NCI-H23 lung
  GI50: 535 nM
  TGI: 17800 nM
IGROV1 ovarian
  GI50: 554 nM
  TGI: 19200 nM
SF-539 CNS
  GI50: 307 nM
  TGI: 3430 nM
ACHN renal
  GI50: 690 nM
  TGI: 16600 nM
OVCAR-5 ovarian
  GI50: 538 nM
  TGI: 35300 nM
TK-10 renal
  GI50: 9040 nM
  TGI: 29100 nM
T-47D breast
  GI50: 2800 nM
  TGI: > 65600 nM
SF-268 CNS
  GI50: 1070 nM
  TGI: 29300 nM
SK-OV-3 ovarian
  GI50: 629 nM
  TGI: 51800 nM
CCRF-CEM leukemia
  GI50: 365 nM
  TGI: > 94000 nM
SK-MEL-5 melanoma
  GI50: 590 nM
  TGI: 4100 nM
HL-60(TB) leukemia
  GI50: 288 nM
  TGI: 888 nM
MDA-MB-231 breast
  GI50: 591 nM
  TGI: 12000 nM
RXF 393 renal
  GI50: 326 nM
  TGI: 16700 nM
HCC-2998 colon
  GI50: 370 nM
  TGI: 12600 nM
M14 melanoma
  GI50: 337 nM
  TGI: 11500 nM
UACC-257 melanoma
  GI50: 7210 nM
  TGI: > 78000 nM
NCI-H522 lung
  GI50: 312 nM
  TGI: 3360 nM
EKVX NSCLC
  GI50: 734 nM
  TGI: > 87800 nM
CAKI-1 renal
  GI50: 577 nM
  TGI: 14900 nM
K-562 leukemia
  GI50: 351 nM
  TGI: > 100000 nM
SNB-75 CNS
  GI50: 198 nM
  TGI: 714 nM
OVCAR-8 ovarian
  GI50: 397 nM
  TGI: 26700 nM
COLO 205 colon
  GI50: 317 nM
  TGI: 1120 nM
NCI-H226 lung
  GI50: 923 nM
  TGI: 37100 nM
MOLT-4 leukemia
  GI50: 434 nM
  TGI: > 41100 nM
SK-MEL-28 melanoma
  GI50: 5820 nM
  TGI: 60200 nM
SK-MEL-2 melanoma
  GI50: 1920 nM
  TGI: 5880 nM
NCI-H460 lung
  GI50: 364 nM
  TGI: 29000 nM
UACC-62 melanoma
  GI50: 538 nM
  TGI: 21600 nM
SW-620 colon
  GI50: 458 nM
  TGI: > 100000 nM
MDA-MB-435
  GI50: 240 nM
  TGI: 602 nM
MALME-3M melanoma
  GI50: 3460 nM
  TGI: 35100 nM
